Reference: PMC8467814, “RSK1 vs. RSK2 Inhibitory Activity of the Marine β-Carboline Alkaloid Manzamine A: A Biochemical, Cervical Cancer Protein Expression, and Computational Study” (Marine Drugs, 2021)

Experiments:
[1] = molecular target: T1, RSK2 (90 kDa ribosomal protein S6 kinase 2) (Homo sapiens, UniProt P51812); test: radiometric […]-ATP kinase assay with KKLNRTLSVA peptide, P81 filter; assay type: biochemical
T1 construct: gene RPS6KA3

[2] = molecular target: T2, RSK1 (90 kDa ribosomal protein S6 kinase 1; MAPKAP-K1α) (Rattus norvegicus, UniProt Q63531); test: radiometric […]-ATP kinase assay with KKLNRTLSVA peptide, P81 filter; also […] inhibition at […] in kinase panel; assay type: biochemical
T2 construct: gene Rps6ka1
T2 sequence (Q63531 whole entry): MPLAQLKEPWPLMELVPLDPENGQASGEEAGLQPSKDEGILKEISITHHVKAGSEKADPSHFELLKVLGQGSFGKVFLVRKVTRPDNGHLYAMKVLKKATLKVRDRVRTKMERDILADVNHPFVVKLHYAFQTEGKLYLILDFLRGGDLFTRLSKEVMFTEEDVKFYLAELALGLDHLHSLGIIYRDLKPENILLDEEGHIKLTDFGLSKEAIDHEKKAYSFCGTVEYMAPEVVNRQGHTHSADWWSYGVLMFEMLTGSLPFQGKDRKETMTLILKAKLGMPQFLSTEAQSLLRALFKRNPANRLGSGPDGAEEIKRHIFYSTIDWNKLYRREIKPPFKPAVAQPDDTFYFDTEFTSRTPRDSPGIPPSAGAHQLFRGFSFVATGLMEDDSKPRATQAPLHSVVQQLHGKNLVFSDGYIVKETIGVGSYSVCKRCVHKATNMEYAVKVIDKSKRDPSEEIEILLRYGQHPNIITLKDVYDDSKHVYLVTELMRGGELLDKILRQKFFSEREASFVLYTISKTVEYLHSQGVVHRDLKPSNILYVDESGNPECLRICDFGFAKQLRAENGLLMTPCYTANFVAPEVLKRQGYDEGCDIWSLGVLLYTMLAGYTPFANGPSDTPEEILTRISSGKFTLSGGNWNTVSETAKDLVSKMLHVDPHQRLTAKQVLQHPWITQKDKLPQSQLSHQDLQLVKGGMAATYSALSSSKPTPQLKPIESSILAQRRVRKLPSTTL

T1 sequence (P51812 whole entry): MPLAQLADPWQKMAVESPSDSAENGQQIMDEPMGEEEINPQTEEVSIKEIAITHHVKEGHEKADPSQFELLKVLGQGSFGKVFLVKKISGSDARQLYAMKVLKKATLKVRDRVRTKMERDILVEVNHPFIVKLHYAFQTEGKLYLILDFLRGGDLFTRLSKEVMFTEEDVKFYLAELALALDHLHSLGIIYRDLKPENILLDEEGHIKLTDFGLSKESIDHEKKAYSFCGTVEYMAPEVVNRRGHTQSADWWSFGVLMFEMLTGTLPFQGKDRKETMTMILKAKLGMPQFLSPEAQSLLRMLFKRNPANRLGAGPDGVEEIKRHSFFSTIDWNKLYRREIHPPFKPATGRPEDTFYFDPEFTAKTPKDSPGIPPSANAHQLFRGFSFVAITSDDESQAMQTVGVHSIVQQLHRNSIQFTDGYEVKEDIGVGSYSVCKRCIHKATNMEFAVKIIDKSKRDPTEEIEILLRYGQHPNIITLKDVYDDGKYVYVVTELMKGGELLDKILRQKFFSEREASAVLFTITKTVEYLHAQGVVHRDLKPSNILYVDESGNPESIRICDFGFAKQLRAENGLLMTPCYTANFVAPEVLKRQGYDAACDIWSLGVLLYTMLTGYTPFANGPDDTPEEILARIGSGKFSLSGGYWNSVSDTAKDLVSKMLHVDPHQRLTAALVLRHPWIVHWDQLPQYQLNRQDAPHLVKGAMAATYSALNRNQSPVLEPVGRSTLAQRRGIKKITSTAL

O[C@]12C=C(c3nccc4c3[nH]c3ccccc34)[C@@H]3CCN(CCCC/C=C\CC1)C[C@@]31C[C@@H]3/C=C\CCCCN3[C@H]12 [MZA, Manzamine A]
IC50 [1]: 108 µM | IC50 [2]: 15 µM
